One block for each compound: values may come before it.
Tests used:
[1] = target: T1, Adenosine receptor A3 (Homo sapiens, UniProt P0DMS8); experiment: Binding affinity to human recombinant adenosine A3 receptor
T1 sequence (P0DMS8 whole entry): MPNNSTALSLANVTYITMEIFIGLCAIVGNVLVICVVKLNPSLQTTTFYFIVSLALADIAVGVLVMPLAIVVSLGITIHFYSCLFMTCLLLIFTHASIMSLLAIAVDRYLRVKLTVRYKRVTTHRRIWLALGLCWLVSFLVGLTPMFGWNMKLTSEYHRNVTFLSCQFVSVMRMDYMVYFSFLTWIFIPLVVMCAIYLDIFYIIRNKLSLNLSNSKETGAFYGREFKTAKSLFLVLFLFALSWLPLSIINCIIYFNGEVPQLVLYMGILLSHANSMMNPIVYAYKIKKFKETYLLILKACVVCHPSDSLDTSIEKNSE

[2] = target: T2, Adenosine receptor A2b (Homo sapiens, UniProt P29275)
T2 sequence (P29275 whole entry): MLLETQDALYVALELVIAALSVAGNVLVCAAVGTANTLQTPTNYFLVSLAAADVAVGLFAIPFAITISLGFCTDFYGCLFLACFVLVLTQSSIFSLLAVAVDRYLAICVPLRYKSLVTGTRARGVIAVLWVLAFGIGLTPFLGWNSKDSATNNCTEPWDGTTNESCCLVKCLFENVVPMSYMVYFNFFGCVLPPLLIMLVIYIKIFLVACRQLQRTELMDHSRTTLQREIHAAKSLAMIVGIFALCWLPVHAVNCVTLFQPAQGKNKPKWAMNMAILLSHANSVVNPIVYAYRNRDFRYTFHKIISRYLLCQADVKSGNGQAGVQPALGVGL

[3] = target: T3, Adenosine receptor A1 (Homo sapiens, UniProt P30542)
T3 sequence (P30542 whole entry): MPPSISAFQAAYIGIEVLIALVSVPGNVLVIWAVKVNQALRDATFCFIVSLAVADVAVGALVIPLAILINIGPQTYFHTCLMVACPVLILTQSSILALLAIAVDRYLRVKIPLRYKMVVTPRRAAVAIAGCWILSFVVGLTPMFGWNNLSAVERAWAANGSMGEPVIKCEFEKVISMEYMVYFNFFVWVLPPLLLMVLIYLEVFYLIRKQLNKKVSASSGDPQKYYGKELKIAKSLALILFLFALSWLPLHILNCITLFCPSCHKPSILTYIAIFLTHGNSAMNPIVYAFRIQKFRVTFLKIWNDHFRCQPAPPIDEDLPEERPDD

[4] = target: T2, Adenosine receptor A2b; remark: listed apart in the source
[5] = target: T4, Adenosine receptor A2a (Homo sapiens, UniProt P29274)
T4 sequence (P29274 whole entry): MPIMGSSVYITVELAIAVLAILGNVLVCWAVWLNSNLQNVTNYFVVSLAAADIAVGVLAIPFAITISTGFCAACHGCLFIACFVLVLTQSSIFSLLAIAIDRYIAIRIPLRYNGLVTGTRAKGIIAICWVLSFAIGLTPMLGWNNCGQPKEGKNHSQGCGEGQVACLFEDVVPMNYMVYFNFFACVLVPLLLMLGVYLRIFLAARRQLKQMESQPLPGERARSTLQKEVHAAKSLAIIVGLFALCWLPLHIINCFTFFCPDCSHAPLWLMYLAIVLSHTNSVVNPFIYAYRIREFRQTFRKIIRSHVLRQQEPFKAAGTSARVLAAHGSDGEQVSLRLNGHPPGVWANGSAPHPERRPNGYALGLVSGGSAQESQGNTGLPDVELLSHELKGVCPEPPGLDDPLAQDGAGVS

[6] = target: T1, Adenosine receptor A3
[7] = tested on: Rattus norvegicus; experiment: Anticataleptic activity in po dosed rat assessed as inhibition of haloperidol-induced catalepsy; assay type: functional
[8] = species: Homo sapiens; experiment: Selectivity ratio of Ki for human recombinant adenosine A1 receptor to Ki for human recombinant adenosine receptor A2a
[9] = target: T3, Adenosine receptor A1; remark: listed apart in the source
[10] = target: T5, Adenosine receptor A2a (Rattus norvegicus, UniProt P30543)
T5 sequence (P30543 whole entry): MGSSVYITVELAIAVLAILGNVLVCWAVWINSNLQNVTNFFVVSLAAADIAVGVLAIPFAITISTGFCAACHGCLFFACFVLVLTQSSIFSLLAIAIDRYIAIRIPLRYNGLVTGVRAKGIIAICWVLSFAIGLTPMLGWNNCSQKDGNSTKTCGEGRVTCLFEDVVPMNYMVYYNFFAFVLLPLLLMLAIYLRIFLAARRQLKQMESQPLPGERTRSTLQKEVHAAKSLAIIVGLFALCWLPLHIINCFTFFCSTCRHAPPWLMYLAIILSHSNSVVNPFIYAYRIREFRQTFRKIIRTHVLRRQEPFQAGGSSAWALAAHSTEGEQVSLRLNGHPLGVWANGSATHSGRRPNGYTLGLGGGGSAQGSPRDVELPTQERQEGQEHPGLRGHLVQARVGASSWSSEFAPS

[11] = tested on: Rattus norvegicus; experiment: Anticataleptic activity in rat assessed as inhibition at 3 mg/kg, po after 1 hr; assay type: functional
[12] = tested on: Rattus norvegicus; experiment: Anticataleptic activity in rat assessed as inhibition at 3 mg/kg, po after 4 hrs; assay type: functional
[13] = AUC in rat at 3 mg/kg, po; assay type: ADME, organism-based; design: dose 3 mg/kg, route oral; details: plasma
[14] = target: T5, Adenosine receptor A2a; experiment: Binding affinity to rat recombinant adenosine receptor A2a
[15] = species: Rattus norvegicus; experiment: Anticataleptic activity in rat assessed as minimum efficacious dose; assay type: functional; details: read-out: MED
[16] = target: Adenosine receptor A2a (Rattus norvegicus) (UniProt P30543); experiment: Receptor occupancy at adenosine receptor A2a in rat striatum; assay type: tissue-based
Chain of Adenosine receptor A2a (Rattus norvegicus) (P30543 whole entry): as above

[17] = target: T6, Adenosine receptor A1 (Rattus norvegicus, UniProt P25099); experiment: Binding affinity to rat recombinant adenosine A1 receptor
T6 sequence (P25099 whole entry): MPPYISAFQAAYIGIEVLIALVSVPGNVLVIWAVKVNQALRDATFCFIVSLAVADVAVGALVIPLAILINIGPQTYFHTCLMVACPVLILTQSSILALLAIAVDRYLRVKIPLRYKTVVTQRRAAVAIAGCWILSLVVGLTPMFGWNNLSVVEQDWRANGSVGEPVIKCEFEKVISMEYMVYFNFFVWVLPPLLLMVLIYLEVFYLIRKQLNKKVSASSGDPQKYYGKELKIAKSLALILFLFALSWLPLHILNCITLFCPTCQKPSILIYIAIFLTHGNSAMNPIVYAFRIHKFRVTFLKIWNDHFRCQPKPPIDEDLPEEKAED

[18] = target: T4, Adenosine receptor A2a; remark: listed apart in the source
[19] = Oral bioavailability in rat; assay type: ADME, organism-based; details: in vivo
[20] = Solubility of the compound in water pH 7.4; assay type: physicochemical
[21] = tested on: Rattus norvegicus; experiment: Induction of hypolocomotion in po dosed rat assessed as reduction in motor deficts; assay type: functional

SMILES: Nc1nc(-c2ccco2)c2ncn(C(=O)NCc3ccco3)c2n1
- Ki [4]: 0.141 µM
- Ki [5]: 0.0017 µM
- Ki [6]: 1.93 µM

SMILES: Nc1nc(-c2ccccc2)c2c(n1)-c1cc(CN3CCCC3)ccc1C2=O
- ED50 [7]: 0.5 mg/kg

SMILES: CC(=O)CCc1nc(N)c2nc(-n3nccn3)n(C)c2n1
- Ratio Ki [8]: 16
- Ki [9]: 0.192 µM

SMILES: Nc1nc2ccc(Cl)cc2c2nc(-c3ccco3)nn12 [CGS-15943]
- Ki [10]: 0.0004 µM

SMILES: Cn1c(=O)c2c(ncn2C)n(C)c1=O [CAFFEINE]
- inhibition in vivo at 3 mg/kg [11]: 35%
- inhibition in vivo at 3 mg/kg [12]: 14%

SMILES: CN(C)CCn1ncc2c1nc(N)n1c(=O)n(Cc3cccc(Cl)c3)nc21
- Ratio Ki [8]: 269
- Ki [9]: 1.4 µM

SMILES: Cc1ccc2cc(CCn3ncc4c3nc(N)n3nc(-c5ccco5)nc43)ccc2n1
- Ratio Ki [8]: 169
- AUC [13]: 1400 ng·h/mL
- inhibition in vivo at 3 mg/kg [11]: 86%
- inhibition in vivo at 3 mg/kg [12]: 38%
- Ki [9]: 0.406 µM

SMILES: Nc1nnc(-c2ccccc2)c(-c2ccccc2)n1
- Ki [9]: 0.27 µM

SMILES: CCNC(=O)[C@H]1O[C@@H](n2cnc3c(N)nc(NCCc4ccc(CCC(=O)NCCN)cc4)nc32)[C@H](O)[C@@H]1O
- ID90 [21]: 3.4 mg/kg
- ED50 ([21]; Rattus norvegicus, po, read-out: ID50 (the source's name)): 0.5 mg/kg

SMILES: CCn1c(=O)c2c(nc(/C=C/c3ccc(OC)c(OC)c3)n2C)n(CC)c1=O [ISTRADEFYLLINE]
- Ki [6]: > 3 µM

SMILES: Nc1nc(OCCc2ccc(Cl)cc2)nc2c1ncn2[C@@H]1O[C@H](CO)[C@@H](O)[C@H]1O [SONEDENOSON]
- EC50 [2]: 10 µM
- Ki [3]: 10 µM

Second part, led by results:

- Ki [1]: 10 µM
- EC50 [2]: 10 µM
- Ki [3]: 3.77 µM
SMILES: CNC(=O)c1cnn(-c2nc(N)c3ncn([C@@H]4O[C@H](CO)[C@@H](O)[C@H]4O)c3n2)c1 [REGADENOSON ANHYDROUS]

- Ki [1]: 0.045 µM
- Ki [3]: 0.077 µM
SMILES: CCNC(=O)[C@H]1O[C@@H](n2cnc3c(N)nc(C#CC[C@H]4CC[C@H](C(=O)OC)CC4)nc32)[C@H](O)[C@@H]1O [APADENOSON]

- Ratio Ki [8]: 12
- Ki [9]: 0.0792 µM
- Ki [6]: > 10 µM
SMILES: CCCCc1nc(N)c2nc(-n3nccn3)n(C)c2n1 [ST1535]

- Ratio Ki [8]: 245
- Ki [9]: 10 µM
SMILES: CC1(C)CCCN(c2nnc(N)nc2-c2ccccc2)C1

- Ki [4]: 0.112 µM
- Ki [6]: 1.47 µM
SMILES: Nc1nc(-c2ccco2)c2ncn(C(=O)NCc3ccccc3)c2n1

- Ki [14]: 0.1 µM
SMILES: Nc1nc(Nc2ccccc2)nc2c1ncn2[C@@H]1O[C@H](CO)[C@@H](O)[C@H]1O

- Ki [6]: > 10 µM
SMILES: Nc1nc(NCCc2ccc(O)cc2)nc2nc(-c3ccco3)nn12 [ZM-241385]

- Ratio Ki [8]: 99
- Ki [9]: 1.4 µM
SMILES: Nc1nc2c(cnn2CCN2CCOCC2)c2nn(Cc3cccc(Cl)c3)c(=O)n12

- Activity [16]: 85%
- Ki [6]: > 0.557 µM
SMILES: CC(C)n1cc(-c2ncc(N)nc2-c2ccc(F)cc2)ccc1=O
- minimal effective dose [15]: 0.1 mg/kg

- Ki [17]: 0.107 µM
- Ki [1]: 0.092 µM
- Ki [18]: 0.167 µM
SMILES: O=C(Nc1ccc(F)cc1)Nc1ccc(Nc2nc(-c3ccccc3)nc3c2nnn3Cc2ccccc2)cc1

- Ratio Ki [8]: 25
- bioavailability [19]: 90%
- solubility [20]: > 450 µM
SMILES: COCc1cccc(CNC(=O)c2cc(-c3ccco3)nc(N)n2)n1

- Ratio Ki [8]: 3
- Ki [9]: 0.024 µM
SMILES: CC(O)CCc1nc(N)c2nc(-n3nccn3)n(C)c2n1 (centres undefined)
